The test system of data set [1] is goblet cells in nasal mucosa tissue. Briefly: goblet cells in nasal mucosa tissue of Ovalbumin-sensitized mice (PAS staining). The class given is in vivo, BALB/c mice. As to conditions: 50 mM in PBS by aerosolization 360 min before each OVA inhalation, Day 22 to 98; control group 50%. Here is the method:
Eight male and female BALB/c mice (6-8 weeks of age at the beginning of the protocol) were sensitized with Ovalbulmin (OVA) on D1 and D11 by intraperitoneal (i.p.) injection (10 μg grade V OVA diluted in 200 μl PBS), followed by OVA aerosols (10% grade Ill OVA dissolved in PBS buffer −50 ml were aerosolized with ultrasonic nebulizer during 30 minutes in a 30×20×15 cm Plexiglas exposure box where the animals were authorized to breathe and move normally). Aerosol administration was performed 360 min after i.n. treatments with Placebo or hydroxypropyl-gamma-cyclodextrin (HP-gamma-CD) during even weeks from days 22 to 98 (5 days/even week).
Mice were treated from Day 22 to Day 98 (5 days per week even week) with PBS (8 mice in control group) or with hydroxypropyl-gamma-cyclodextrin 50 mM diluted in PBS (8 mice in treated group) by aeorosolization (50 ml were aerosolized during 30 minutes in a Plexiglas exposure box where the animals were authorized to breathe and move normally) 360 min before each OVA inhalation.
On Day 99, the animals were sacrificed. […]
Numbers of goblet cells were counted using digitalized images of histological slides. Three hundred epithelial cells were counted at random and the percentage of positive cells for PAS staining (Goblet cells) was established relative to cells negative for PAS staining.

Another data set concerns Wistar rats. Briefly: two-week Dose-Range-Finding (DRF) Inhalation Study, histopathology of the nasal cavities. The class given is in vivo. As to conditions: for Normal (number of animals with normal nasal cavity histopathology): 3 examined. As for the experimental part:
Hydroxypropylbetacyclodextrin (HPBCD) was administered during two-weeks in a Dose-Range-Finding (DRF) Inhalation Study to Wistar rats in three different delivered doses: • low of 20 mg/kg/day and a target atmosphere concentration of 0.3 mg/L, • medium of 60 mg/kg/day and a target atmosphere concentration of 0.9 mg/L, and • […] to each three male and three non-pregnant female rats.
A control group which received control vehicle in the form of citrate buffer was provided with three male and three non-pregnant female rats. After terminal euthanasia, the nasal cavity was removed. Nasal cavities were embedded in paraffin wax, sections were cut at 4-6 μm by microtome and transferred to slides. Tissue sections were stained with haematoxylin-eosin/phloxine and examined by light microscope. Full histopathology of the nasal cavities, as well as the other organs of the respiratory tract, was performed in each group and is shown in FIG. 1. 4 levels of the nasal cavities were examined, among which 1 level included the nasopharyngeal duct and Nasal Associated Lymphoid Tissue (NALT).
Nasal cavities analyzed by histopathology were normal at all exposure levels of HPBCD.

The values that follow come from patent US20220249540A1, “INHALABLE COMPOSITION COMPROMISING CYCLODEXTRIN FOR USE IN THE TREATMENT OF NASAL INFLAMMATIONS” (AQUILON PHARMACEUTICALS SA, priority 2019, published 2022).

With “2-hydroxypropyl-γ-cyclodextrin [Hydroxypropyl-gamma-cyclodextrin]”, the “% of goblet cells in nasal mucosa tissue” value in data set [1] was 20%.

On to `CC(O)COC[C@H]1O[C@@H]2O[C@H]3[C@H](O)[C@@H](O)[C@@H](O[C@H]4[C@H](O)[C@@H](O)[C@@H](O[C@H]5[C@H](O)[C@@H](O)[C@@H](O[C@H]6[C@H](O)[C@@H](O)[C@@H](O[C@H]7[C@H](O)[C@@H](O)[C@@H](O[C@H]8[C@H](O)[C@@H](O)[C@@H](O[C@H]1[C@H](O)[C@H]2O)O[C@@H]8COCC(C)O)O[C@@H]7COCC(C)O)O[C@@H]6COCC(C)O)O[C@@H]5COCC(C)O)O[C@@H]4COCC(C)O)O[C@@H]3COCC(C)O` (stereo partly drawn) [HPBCD, 2-hydroxypropyl-beta-cyclodextrin], for which the “Normal (number of animals with normal nasal cavity histopathology)” value in the data set on Wistar rats (Female, High dosage (180 mg/kg/day)) is recorded as 3; in the data set on Wistar rats (Female, Low dosage (20 mg/kg/day)) it was 3; in the data set with Wistar rats (Female, Mid dosage (60 mg/kg/day)), 3; in the data set on Wistar rats (Male, High dosage (180 mg/kg/day)), 3; with Wistar rats (Male, Low dosage (20 mg/kg/day)) it was 3; in the data set on Wistar rats (Male, Mid dosage (60 mg/kg/day)), 3. For the same molecule, the “Nasal cavities analyzed by histopathology” value in the data set with Wistar rats (all exposure levels (20, 60, 180 mg/kg/day), nose-only inhalation, 90 min/day, 14 days) is “normal”.
